Assay results: US20230374035A1, “RAS INHIBITORS” (Revolution Medicines, Inc., priority 2019, published 2023)

Each compound was assayed against NRAS Q61K (Homo sapiens, UniProt P01111+P62937, Q61K) (assay: Disruption of BRAF RBD interaction with Ras (FRET / MOA assay)). Conditions: read-out: NRAS Q61K FRET data IC50.
Type: biochemical
Protocol: Compound is present in plate wells as a 10-point 3-fold dilution series starting at a final concentration of 30 μM. […] Compounds that facilitate disruption of a Ras:RAF complex are identified as those eliciting a decrease in the TR-FRET ratio relative to DMSO control wells.
Note—The following protocol describes a procedure for monitoring disruption of K-Ras G12C (GMP-PNP) binding to BRAF^RBD by a compound of the invention. This protocol may also be executed substituting other Ras proteins or nucleotides.
The purpose of this biochemical assay was to measure the ability of test compounds to facilitate ternary complex formation between a nucleotide-loaded K-Ras isoform and Cyclophilin A; the resulting ternary complex disrupts binding to a BRAF^RBD construct, inhibiting K-Ras signaling through a RAF effector. Data is reported as IC50 values.
Compound was present in plate wells as a 10-point 3-fold dilution series starting at a final concentration of 30 μM. […] Compounds that facilitate disruption of a K-Ras:RAF complex were identified as those eliciting a decrease in the TR-FRET ratio relative to DMSO control wells.

NRAS Q61K, sequence (P01111 whole entry Q61K): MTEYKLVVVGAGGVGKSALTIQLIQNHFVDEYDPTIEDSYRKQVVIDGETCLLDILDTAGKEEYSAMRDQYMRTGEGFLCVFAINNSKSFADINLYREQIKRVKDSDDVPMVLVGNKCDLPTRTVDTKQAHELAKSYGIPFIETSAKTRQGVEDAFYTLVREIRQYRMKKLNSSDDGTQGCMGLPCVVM
NRAS Q61K, sequence (P62937 whole entry): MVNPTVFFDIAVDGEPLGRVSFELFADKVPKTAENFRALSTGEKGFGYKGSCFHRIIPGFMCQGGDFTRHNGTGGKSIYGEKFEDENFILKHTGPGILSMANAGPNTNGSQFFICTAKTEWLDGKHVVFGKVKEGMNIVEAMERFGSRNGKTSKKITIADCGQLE

Row | Structure (SMILES) | IC50 [nM]
1 | CCn1c(-c2cccnc2[C@H](C)OC)c2c3cc(ccc31)-c1csc(n1)C[C@H](NC(=O)[C@H](C(C)C)N(C)C(=O)N1C3COCC1C3)C(=O)N1CCC[C@H](N1)C(=O)OCC(C)(C)C2 [Compound A540] | 10 to 100
2 | CCn1c(-c2cccnc2[C@H](C)OC)c2c3cc(ccc31)-c1csc(n1)C[C@H](NC(=O)[C@H](C(C)C)N(C)C(=O)N1CCCC[C@H](N(C)C)C1)C(=O)N1CCC[C@H](N1)C(=O)OCC(C)(C)C2 (atropisomer, axis not shown) [Compound A491] | 10 to 100
3 | CCn1c(-c2cccnc2[C@H](C)OC)c2c3cc(ccc31)-c1cc(O)cc(c1)C[C@H](NC(=O)[C@H](C(C)C)N(C)C(=O)[C@H]1CCC(=O)O1)C(=O)N1CCC[C@H](N1)C(=O)OCC(C)(C)C2 (atropisomer, axis not shown) [Compound A405] | 10 to 100
4 | CCn1c(-c2cccnc2[C@H](C)OC)c2c3cc(ccc31)-c1csc(n1)C[C@H](NC(=O)[C@H](C(C)C)N(C)C(=O)N1CC(S(C)(=O)=O)C1)C(=O)N1CCC[C@H](N1)C(=O)OCC(C)(C)C2 (atropisomer, axis not shown) [Compound A383] | 10 to 100
5 | CCn1c(-c2cccnc2[C@H](C)OC)c2c3cc(ccc31)-c1csc(n1)C[C@H](NC(=O)[C@H](C(C)C)N(C)C(=O)N1CC([C@H](C)N(C)C)C1)C(=O)N1CCC[C@H](N1)C(=O)OCC(C)(C)C2 (atropisomer, axis not shown) [Compound A538] | 10 to 100
6 | CCn1c(-c2cccnc2[C@H](C)OC)c2c3cc(ccc31)-c1csc(n1)C[C@H](NC(=O)[C@H](C(C)C)N(C)C(=O)N1C[C@@H]3OCCN(C)[C@@H]3C1)C(=O)N1CCC[C@H](N1)C(=O)OCC(C)(C)C2 (atropisomer, axis not shown) [Compound A444] | 10 to 100
7 | CCn1c(-c2cccnc2[C@H](C)OC)c2c3cc(ccc31)-c1csc(n1)C[C@H](NC(=O)[C@H](C(C)C)N(C)C(=O)N1CCC[C@H](N(C)C)C1)C(=O)N1CCC[C@H](N1)C(=O)OCC(C)(C)C2 (atropisomer, axis not shown) [Compound A569] | 10 to 100
8 | CO[C@@H](C)c1ncccc1-c1c2c3cc(ccc3n1CC(F)F)-c1csc(n1)C[C@H](NC(=O)[C@H](C(C)C)N(C)C(=O)N1CC(N(C)C)C1)C(=O)N1CCC[C@H](N1)C(=O)OCC(C)(C)C2 (atropisomer, axis not shown) [Compound A316] | 10 to 100
9 | CCn1c(-c2cccnc2[C@H](C)OC)c2c3cc(ccc31)-c1csc(n1)C[C@H](NC(=O)[C@H](C(C)C)N(C)C(=O)N1CCO[C@H](c3ccccc3)C1)C(=O)N1CCC[C@H](N1)C(=O)OCC(C)(C)C2 (atropisomer, axis not shown) [Compound A582] | 10 to 100
10 | CCn1c(-c2cccnc2[C@H](C)OC)c2c3cc(ccc31)-c1csc(n1)C[C@H](NC(=O)[C@H](C(C)C)N(C)C(=O)N1C[C@H](N)[C@@H](O)C1)C(=O)N1CCC[C@H](N1)C(=O)OCC(C)(C)C2 (atropisomer, axis not shown) [Compound A581] | 10 to 100
11 | CCn1c(-c2cccnc2[C@H](C)OC)c2c3cc(ccc31)-c1csc(n1)[C@@H](OC)[C@H](NC(=O)[C@H](C(C)C)N(C)C(=O)N(C)C)C(=O)N1CCC[C@H](N1)C(=O)OCC(C)(C)C2 (atropisomer, axis not shown) [Compound A598, (2S)—N-((6^3S,3S,4S,Z)-1^1-ethyl-3-methoxy-1^2-(2-((S)-1-methoxyethyl)pyridin-3-yl)-10,10-dimethyl-5,7-dioxo-6^1,6^2,6^3,6^4,6^5,6^6-hexahydro-1^1H-8-oxa-2(4,2)-thiazola-1(5,3)-indola-6(1,3)-pyridazinacycloundecaphane-4-yl)-3-methyl-2-(1,3,3-trimethylureido)butanamide] | 10 to 100
12 | CCn1c(-c2cccnc2[C@H](C)OC)c2c3cc(ccc31)-c1csc(n1)C[C@H](NC(=O)[C@H](C(C)C)N(C)C(=O)N1CC3(CC(NCCOC)C3)C1)C(=O)N1CCC[C@H](N1)C(=O)OCC(C)(C)C2 (atropisomer, axis not shown) [Compound A512] | 10 to 100

Further lines, results first:

Row | IC50 [nM] | Structure (SMILES)
13 | 10 to 100 | CCn1c(-c2cccnc2[C@H](C)OC)c2c3cc(ccc31)-c1csc(n1)C[C@H](NC(=O)[C@H](C(C)C)N(C)C(=O)N(C)C1COC1)C(=O)N1CCC[C@H](N1)C(=O)OCC(C)(C)C2 (atropisomer, axis not shown) [Compound A334]
14 | 10 to 100 | CCn1c(-c2cccnc2[C@H](C)OC)c2c3cc(ccc31)-c1csc(n1)C[C@H](NC(=O)[C@H](C(C)C)N(C)C(=O)N1CC(C#N)(N(C)C)C1)C(=O)N1CCC[C@H](N1)C(=O)OCC(C)(C)C2 [Compound A452]
15 | 10 to 100 | CCn1c(-c2cccnc2[C@H](C)OC)c2c3cc(ccc31)-c1csc(n1)C[C@H](NC(=O)[C@H](C(C)C)N(C)C(=O)N(C)CCc1ccncc1)C(=O)N1CCC[C@H](N1)C(=O)OCC(C)(C)C2 (atropisomer, axis not shown) [Compound A557]
16 | 10 to 100 | CCn1c(-c2cccnc2[C@H](C)OC)c2c3cc(ccc31)-c1csc(n1)C[C@H](NC(=O)[C@H](C(C)C)N(C)C(=O)N1CC(C(=O)O)C1)C(=O)N1CCC[C@H](N1)C(=O)OCC(C)(C)C2 (atropisomer, axis not shown) [Compound A344]
17 | 10 to 100 | CCn1c(-c2cccnc2[C@H](C)OC)c2c3cc(ccc31)-c1csc(n1)C[C@H](NC(=O)[C@H](C(C)C)N(C)C(=O)N1CCO[C@@H](c3ccccc3)C1)C(=O)N1CCC[C@H](N1)C(=O)OCC(C)(C)C2 (atropisomer, axis not shown) [Compound A600]
18 | 10 to 100 | CCn1c(-c2cccnc2[C@H](C)OC)c2c3cc(ccc31)-c1csc(n1)C[C@H](NC(=O)[C@H](C(C)C)N(C)C(=O)N1CC(CN(C)C)C1)C(=O)N1CCC[C@H](N1)C(=O)OCC(C)(C)C2 (atropisomer, axis not shown) [Compound A576]
19 | 10 to 100 | CCn1c(-c2cccnc2[C@H](C)OC)c2c3cc(ccc31)-c1csc(n1)C[C@H](NC(=O)[C@H](C(C)C)N(C)C(=O)N1CCC13CCS(=O)(=O)CC3)C(=O)N1CCC[C@H](N1)C(=O)OCC(C)(C)C2 (atropisomer, axis not shown) [Compound A530]
20 | 10 to 100 | CCn1c(-c2cccnc2[C@H](C)OC)c2c3cc(ccc31)-c1csc(n1)C[C@H](NC(=O)[C@H](C(C)C)N(C)C(=O)N1CCC[C@H](N(C)C)CC1)C(=O)N1CCC[C@H](N1)C(=O)OCC(C)(C)C2 (atropisomer, axis not shown) [Compound A493]
21 | 10 to 100 | CCn1c(-c2cccnc2[C@H](C)OC)c2c3cc(ccc31)-c1csc(n1)C[C@H](NC(=O)[C@H](C(C)C)N(C)C(=O)N1CC(NS(C)(=O)=O)C1)C(=O)N1CCC[C@H](N1)C(=O)OCC(C)(C)C2 (atropisomer, axis not shown) [Compound A552]
22 | 10 to 100 | CCn1c(-c2cccnc2[C@H](C)OC)c2c3cc(ccc31)-c1csc(n1)C[C@H](NC(=O)[C@H](C(C)C)N(C)C(=O)N1CCN3C(=O)CN(C)C[C@H]3C1)C(=O)N1CCC[C@H](N1)C(=O)OCC(C)(C)C2 (atropisomer, axis not shown) [Compound A537]
23 | 10 to 100 | CCn1c(-c2cccnc2[C@H](C)OC)c2c3cc(ccc31)-c1cc(O)cc(c1)C[C@H](NC(=O)[C@H](C(C)C)N(C)C(=O)C1CCC3(CCOC3)O1)C(=O)N1CCC[C@H](N1)C(=O)OCC(C)(C)C2 (stereo partly drawn) [Compound A409]
24 | 10 to 100 | CCn1c(-c2cccnc2[C@H](C)OC)c2c3cc(ccc31)-c1csc(n1)C[C@H](NC(=O)[C@H](C(C)C)N(C)C(=O)N1CC3(CC(N(C)C4COC4)C3)C1)C(=O)N1CCC[C@H](N1)C(=O)OCC(C)(C)C2 (atropisomer, axis not shown) [Compound A511]
25 | 10 to 100 | CCn1c(-c2cccnc2[C@H](C)OC)c2c3cc(ccc31)-c1csc(n1)C[C@H](NC(=O)[C@H](C(C)C)N(C)C(=O)N1CCN(C(=O)[C@@H]3CCCN3C)CC1)C(=O)N1CCC[C@H](N1)C(=O)OCC(C)(C)C2 (atropisomer, axis not shown) [Compound A596]
26 | 10 to 100 | CCn1c(-c2cccnc2[C@H](C)OC)c2c3cc(ccc31)-c1csc(n1)C[C@H](NC(=O)[C@H](C(C)C)N(C)C(=O)N1CC[C@H](O)C1)C(=O)N1CCC[C@H](N1)C(=O)OCC(C)(C)C2 (atropisomer, axis not shown) [Compound A401]
27 | 10 to 100 | CCn1c(-c2cccnc2[C@H](C)OC)c2c3cc(ccc31)-c1csc(n1)C[C@H](NC(=O)[C@H](C(C)C)N(C)C(=O)N1CC([C@H](C)COC)C1)C(=O)N1CCC[C@H](N1)C(=O)OCC(C)(C)C2 (atropisomer, axis not shown) [Compound A533]
28 | 10 to 100 | CCn1c(-c2cccnc2[C@H](C)OC)c2c3cc(ccc31)-c1csc(n1)C[C@H](NC(=O)[C@H](C(C)C)N(C)C(=O)N1CC3(CC(N(C)C(C)C)C3)C1)C(=O)N1CCC[C@H](N1)C(=O)OCC(C)(C)C2 (atropisomer, axis not shown) [Compound A485]
29 | 10 to 100 | CCn1c(-c2cccnc2[C@H](C)OC)c2c3cc(ccc31)-c1csc(n1)C[C@H](NC(=O)[C@H](C(C)C)N(C)C(=O)N1CCO[C@@H](CN(C)C)C1)C(=O)N1CCC[C@H](N1)C(=O)OCC(C)(C)C2 (atropisomer, axis not shown) [Compound A591]
30 | 10 to 100 | CCn1c(-c2cccnc2[C@H](C)OC)c2c3cc(ccc31)-c1csc(n1)C[C@H](NC(=O)[C@H](C(C)C)N(C)C(=O)N1CC(COC)C1)C(=O)N1CCC[C@H](N1)C(=O)OCC(C)(C)C2 (atropisomer, axis not shown) [Compound A387]
